This test concerns Male C57BL/6J mice. The test is described as follows: Energy expenditure by indirect calorimetry, administration at rest 2. It counts as in vivo. As to conditions: mice fasted 1 hour, oral, hydrolysates 1.0 mg/g body weight, MKP peptide 0.4 μg/g body weight, randomized crossover, FIG. 3. As for the experimental part: Male C57BL/6J mice as laboratory animals were divided into the following four groups: rest group, casein hydrolysate administration group, MKP peptide administration group, and whey protein hydrolysate administration group. The mice were fasted for 1 hour. Subsequently, a casein hydrolysate and a whey protein hydrolysate each in an amount of 1.0 mg/g body weight and a MKP peptide in an amount of 0.4 μg/g body weight were orally administered, and energy expenditure was measured. The number of mice used in the experiment was n=12 in each group, and a randomized crossover test was employed.
Incidentally, as the casein hydrolysate and the whey protein hydrolysate, those prepared in <1>, (1) to (2), above were used, and, as the MKP peptide, a synthetic peptide was purchased from Peptide Institute and used. Energy expenditure for 60 minutes after administration was determined.
As compared with the rest group, in all the casein hydrolysate administration group, MKP peptide administration group, and whey protein hydrolysate administration group, the level of energy expenditure was higher.

In the case of H-Met-Lys-Pro-OH [MKP peptide], the “average energy expenditure for 60 minutes after administration compared with the rest group” value is on record as “higher”.

For the origin of these results see US20230158098A1, “COMPOSITION FOR PROMOTING ENERGY EXPENDITURE” (MORINAGA MILK INDUSTRY CO., LTD., priority 2017, published 2023).
